Results as given in PMC5678437, “A new antagonist for CCR4 attenuates allergic lung inflammation in a mouse model of asthma” (Scientific Reports, 2017).
Where two headings read alike, the source gives them in different places.

Columns and labels:
[1] = system: OVA-induced asthmatic mice; experiment: Lung histology (H&E) inflammation score in OVA-induced asthmatic mice; format: in vivo, BALB/c mice; conditions: 5 mg inhaled aerosol; vs OVA mice treated with vehicle
Procedure: (§1) Male BALB/c 6 week old mice were purchased from the Experimental Animal Center of Zhejiang University. All mice were raised in a specific pathogen-free animal facility. All animal experiments were carried out according to the guidelines for the care and use of laboratory animals and were approved by the ethics committee of Zhejiang University and Peking University, China.
(§2) Mice were sensitized and challenged with chicken egg OVA (sigma-Aldrich, St Louis, MO, USA) as described in details previously. Briefly, after sensitized by intraperitoneal injection of 100 μl (80 μg) OVA in 100 μl alum (Pierce, Rockford, IL, USA) on days 0 and 14, mice were exposure to 1% OVA aerosols for 40 min on days 24–26. Control mice were injected intraperitoneally with saline and exposed to saline aerosols.
(§3) Compound 8a was dissolved in saline with DMSO (0.5%). Half an hour before each OVA challenge, the groups of mice treated with various doses of compound 8a (0.2, 1, 5 mg) inhaled aerosolized compound 8a for 45 min on days 24–26. Compound 8a aerosols were produced by using a Plexiglas chamber and ultrasonic nebulizer. […]
(§4) After sacrificed, the lungs were fixed in formalin overnight. […] Inflammation was scored according to published guidelines. And PAS-stained goblet cells in airway epithelium were quantified as described previously.

[2] = system: OVA-induced asthmatic mice; experiment: BALF total cell and cell differential counts in OVA-induced asthmatic mice; format: in vivo, BALB/c mice
Procedure: as §1, §2
(§5) Compound 8a was dissolved in saline with DMSO (0.5%). Half an hour before each OVA challenge, the groups of mice treated with various doses of compound 8a (0.2, 1, 5 mg) inhaled aerosolized compound 8a for 45 min on days 24–26. Compound 8a aerosols were produced by using a Plexiglas chamber and ultrasonic nebulizer. While the budesonide (BUD) group were administered with 5 mg budesonide, and the vehicle group were treated with compound-dissolved vehicle. The Saline was treated as the control.
Twenty-four hours after the last exposure, collection of BALF and cell count was performed as previously described. Briefly, lavage was performed by instilling 0.4 ml PBS into lungs and with drawn to collect the cells three times. Total BALF cells were counted. After be centrifuged, the remaining cells was spun onto glass slides, and stained with Wright–Giemsa stain. Differential counts were evaluated by counting 400 total cells.

IL-4 = IL-4 in lung homogenate by ELISA in OVA-induced asthmatic mice; format: in vivo, BALB/c mice; conditions: 5 mg inhaled aerosol; after OVA challenge
Procedure: as §1, §2
Compound 8a was dissolved in saline with DMSO (0.5%). Half an hour before each OVA challenge, the groups of mice treated with various doses of compound 8a (0.2, 1, 5 mg) inhaled aerosolized compound 8a for 45 min on days 24–26. […]
Twenty-four hours after the last challenge, lungs were removed from control or asthmatic mice, and they were cut into pieces and homogenized in 500 μl PBS, centrifuged (2000 rpm, 10 min) and the supernatant collected. The concentration of IL-4 in lungs were determined by ELISA kit (Sensitivity: 2 pg/ml, R&D Systems, Minneap-olis, MN, USA) following the manufacturer’s protocol.

[3] = system: OVA-induced asthmatic mice; experiment: Airway hyperresponsiveness to aerosolized methacholine in OVA-induced asthmatic mice; format: in vivo, BALB/c mice; conditions: 5 mg inhaled aerosol, days 24-26; 24 h after final OVA challenge
Procedure: as §1, §2, §5
Twenty-four hours after the last challenge, mice were anesthetized and tracheotomized with a cannula, then ventilated at a fixed breathing rate. Once being stabilized, mice were challenged via the airways with saline or increasing concentrations of Mch (1, 2, 4, 8, 16 mg/ml) by nebulization. Airway resistance was measured by FinePointe Series RC Sites (Buxco Research System). Changes in airway resistance were calculated for each Mch concentration.

[4] = system: OVA-induced asthmatic mice; experiment: Airway mucus production (PAS staining) in OVA-induced asthmatic mice; format: in vivo, BALB/c mice; conditions: compound 8a 0.2, 1, 5 mg; budesonide 5 mg; vs vehicle treated group
Procedure: as §1, §2, §3, §4

CCR4 = biological target: T1, CCR4 (Homo sapiens, UniProt P51679); experiment: Radio ligand competition binding assay on CCR4 cell membrane extract; conditions: HEK293 CCR4 cell membrane extract, 4 °C, 24 h
T1 construct: expressed in transfected cells; cell membrane extract
T1 sequence (P51679 1-360): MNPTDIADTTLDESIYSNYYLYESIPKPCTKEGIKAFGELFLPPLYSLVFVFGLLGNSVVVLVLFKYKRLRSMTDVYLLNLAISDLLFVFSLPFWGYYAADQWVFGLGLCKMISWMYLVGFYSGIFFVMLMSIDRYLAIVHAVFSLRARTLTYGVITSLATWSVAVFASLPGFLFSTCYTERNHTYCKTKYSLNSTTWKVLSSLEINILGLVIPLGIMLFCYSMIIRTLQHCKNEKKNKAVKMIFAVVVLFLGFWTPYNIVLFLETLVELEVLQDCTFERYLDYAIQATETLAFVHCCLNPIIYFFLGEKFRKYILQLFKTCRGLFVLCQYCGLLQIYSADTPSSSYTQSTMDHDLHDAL
Procedure: A HEK293 cell line stably expressing CCR4-enhanced green fluorescent protein was established. CCL22, CCL17 and C27 were labeled with [^125I]. For competition binding assays, equivalent quantities of cell membrane extract and [^125I]-CCL22, [^125I]-CCL17 and [^125I]-C27 were incubated with varying quantities of unlabeled compound 8a, compound 6b and compound 22. All reactions were incubated at 4 °C for 24 h. After the binding step, 25% polyethylene glycol (6000–8000) and 0.5% human g-globulin were added, and the mixture was incubated at room temperature for 15 min. Binding complexes were obtained by centrifuging the mixture at 3500 rpm for 20 min at 4 °C, and radioactivity was evaluated. Results were corrected for “blank” background radiation, defined as the radioactivity precipitated by polyethylene glycol–g-globulin from the same amount of radioactive ligand in binding buffer in the absence of cells.

[5] = 5 mg inhaled aerosol, compared with vehicle treated group
[6] = compound 8a 0.2, 1, 5 mg, budesonide 5 mg, inhaled aerosol

| Compound | peribronchial and perivascular inflammation (H&E histology) [1] | absolute number of eosinophils in BALF [2, 5] | absolute number of lymphocytes in BALF [2, 5] | number of macrophages in BALF [2, 6] | number of neutrophils in BALF [2, 6] | expression of IL-4 in lungs (ELISA) (IL-4) | AHR to methacholine compared with asthmatic mice treated with vehicle [3] | airway mucus production (PAS-stained cells) [4] | IC50 (CCR4; [125I]-C27, read-out: IC50, competitive binding with C27 to CCR4) [nM] | IC50 (CCR4; [125I]-CCL17, read-out: IC50, competitive binding with CCL17 to CCR4) [nM] | IC50 (CCR4; [125I]-CCL22, read-out: IC50, competitive binding with CCL22 to CCR4) [nM] |
| --- | --- | --- | --- | --- | --- | --- | --- | --- | --- | --- | --- |
| CCCC1O[C@@H]2C[C@H]3[C@@H]4CCC5=CC(=O)C=C[C@]5(C)[C@H]4[C@@H](O)C[C@]3(C)[C@]2(C(=O)CO)O1 (some centres unmarked) [budesonide, reference compound] | significantly attenuated | significantly decreased | significantly decreased | neither compound 8a nor budesonide affect | neither compound 8a nor budesonide affect | notably decreased | significantly lower | no effect |  |  |  |
| O=C([C@@H]1CSCCN1)N1CCN(c2nc(NCc3ccc(Cl)cc3Cl)c3cccnc3n2)CC1 [compound 6b, reference compound] |  |  |  |  |  |  |  |  | 489 | 104 | 360 |
